Test system: participants with SSc-RP
Experiment: Average duration of weekly RP attacks, all attacks (minutes)
Format: in vivo, human
From the text: The relevant metrics measured by this tool daily are: • Study medication • SSc-RP symptoms (Reporting an attack including duration of attack) • Severity of the attack considering all symptoms of the attack e.g. tingling, numbness, pain, color changes (VAS 0-10 cm scale) • Participant's location at the time of the attack (inside home/outside home) • Selecting symptoms experienced during the attack (tingling, numbness, pain, color changes, other) • Pain rating during the attack (11-point Likert scale) • The RCS based on how much difficulty participants had with Raynaud's today, how many attacks the participant had, and how long they lasted. Participants will also be asked to consider how much pain, numbness, or other symptoms the Raynaud's caused in fingers (including painful sores), and how much the Raynaud's alone affected the use of hands today (VAS 0-10 cm scale).
The absolute change in average duration of weekly RP attacks from baseline to the end of each dosing period was and will be a secondary outcome variable. The sponsor-developed participant-informed diary was and will be used to record data. Average duration of weekly RP attacks is defined as the total duration of RP attacks divided by total number of RP attacks within the last 7 days of each dosing period. Total duration of RP attacks during the last 7 days of screening period divided by the total number of RP attacks will be used as baseline for the analysis of all periods. The variable will be calculated similar to frequency data as before.

[1] = Excluding Outliers, ITT Population - Part A (Table B-6), last 7 days of screening period, listed as Pooled Cilnidipine
[2] = ITT Population - Part A (Table B-5), last 7 days of dosing period, listed as Cilnidipine 10 mg
[3] = ITT Population - Part A (Table B-5), last 7 days of dosing period, listed as Cilnidipine 20 mg
[4] = ITT Population - Part A (Table B-5), last 7 days of dosing period, listed as Pooled Cilnidipine
[5] = ITT Population - Part A (Table B-5), last 7 days of screening period, listed as Cilnidipine 10 mg
[6] = ITT Population - Part A (Table B-5), last 7 days of screening period, listed as Cilnidipine 20 mg
[7] = ITT Population - Part A (Table B-5), last 7 days of screening period, listed as Pooled Cilnidipine

## COCCOC(=O)C1=C(C)NC(C)=C(C(=O)OC/C=C/c2ccccc2)C1c1cccc([N+](=O)[O-])c1 (stereo not shown) [Cilnidipine, 1,4-dihydro-2,6-dimethyl,4-(3-nitrophenyl)-3,5-pyridinedicarboxylic acid 2-methoxyethyl (2 E)-3-phenyl-2-propenyl ester]
[1]
  Average duration of weekly RP attacks (All Attacks), Baseline, Median: 25.00 min
  Average duration of weekly RP attacks (All Attacks), Baseline, Q1: 10.63 min
  Average duration of weekly RP attacks (All Attacks), Baseline, Q3: 40.00 min
[2]
  Average Duration of weekly RP attacks (All Attacks), Max: 31.5, 31.5 minutes
  Average Duration of weekly RP attacks (All Attacks), Min: 31.5, 31.5 minutes
  Average duration of weekly RP attacks (All Attacks), Change from Baseline, Max: −8.5, −8.5 minutes
  Average duration of weekly RP attacks (All Attacks), Change from Baseline, Min: −8.5, −8.5 minutes
[3]
  Average Duration of weekly RP attacks (All Attacks): 3.0 min
  Average Duration of weekly RP attacks (All Attacks), Max: 30.5 min
  Average Duration of weekly RP attacks (All Attacks), Q1: 3.00 min
  Average duration of weekly RP attacks (All Attacks), Change from Baseline: -7.6 min
  Average duration of weekly RP attacks (All Attacks), Change from Baseline, Max: 5.5 min
  Average duration of weekly RP attacks (All Attacks), Change from Baseline, Q3: 5.45 min
  Average duration of weekly RP attacks (All Attacks), Percent Change from Baseline, Max: 21.8%
  Average duration of weekly RP attacks (All Attacks), Percent Change from Baseline, Min: −71.8%
  Average duration of weekly RP attacks (All Attacks), Percent Change from Baseline, Q1: −71.76%
  Average duration of weekly RP attacks (All Attacks), Percent Change from Baseline, Q3: 21.82%
[4]
  Average Duration of weekly RP attacks (All Attacks): 3.0 min
  Average Duration of weekly RP attacks (All Attacks), Max: 31.5 min
  Average Duration of weekly RP attacks (All Attacks), Q1: 3.00 min
  Average duration of weekly RP attacks (All Attacks), Change from Baseline: -8.5 min
  Average duration of weekly RP attacks (All Attacks), Change from Baseline, Max: 5.5 min
  Average duration of weekly RP attacks (All Attacks), Change from Baseline, Median: -7.63 min
  Average duration of weekly RP attacks (All Attacks), Change from Baseline, Q1: -8.48 min
  Average duration of weekly RP attacks (All Attacks), Change from Baseline, Q3: 5.45 min
  Average duration of weekly RP attacks (All Attacks), Percent Change from Baseline, Max: 21.8%
  Average duration of weekly RP attacks (All Attacks), Percent Change from Baseline, Min: −71.8%
  Average duration of weekly RP attacks (All Attacks), Percent Change from Baseline, Q1: −71.76%
  Average duration of weekly RP attacks (All Attacks), Percent Change from Baseline, Q3: 21.82%
[5]
  Average duration of weekly RP attacks (All Attacks), Baseline, Max: 40.0, 40.0 minutes
  Average duration of weekly RP attacks (All Attacks), Baseline, Min: 40.0, 40.0 minutes
  Average duration of weekly RP attacks (All Attacks), Baseline, Q1: 40.00, 40.00 minutes
  Average duration of weekly RP attacks (All Attacks), Baseline, Q3: 40.00, 40.00 minutes
[6]
  Average duration of weekly RP attacks (All Attacks), Baseline: 10.6 min
  Average duration of weekly RP attacks (All Attacks), Baseline, Max: 25.0 min
  Average duration of weekly RP attacks (All Attacks), Baseline, Q1: 10.63 min
  Average duration of weekly RP attacks (All Attacks), Baseline, Q3: 25.00 min
[7]
  Average duration of weekly RP attacks (All Attacks), Baseline: 10.6 min
  Average duration of weekly RP attacks (All Attacks), Baseline, Max: 40.0 min
  Average duration of weekly RP attacks (All Attacks), Baseline, Mean: 25.21 min
  Average duration of weekly RP attacks (All Attacks), Baseline, Median: 25.00 min
  Average duration of weekly RP attacks (All Attacks), Baseline, Q1: 10.63 min
  Average duration of weekly RP attacks (All Attacks), Baseline, Q3: 40.00 min

Reference: patent US20240398771A1, “TREATMENT OF SCLERODERMA AND RAYNAUD'S SYNDROME” (Aisa Pharma, Inc., priority 2023, published 2024)
